Results from ChEMBL document CHEMBL2321673, “Critical role of a methyl group on the γ-lactone ring of annonaceous acetogenins in the potent inhibition of mitochondrial complex I” (Bioorg Med Chem Lett, 2013).

Target: NADH-ubiquinone oxidoreductase chain 1 (Bos taurus, UniProt P03887)
Assay: Inhibition of bovine heart mitochondrial complex 1

Sequence of NADH-ubiquinone oxidoreductase chain 1 (P03887 whole entry): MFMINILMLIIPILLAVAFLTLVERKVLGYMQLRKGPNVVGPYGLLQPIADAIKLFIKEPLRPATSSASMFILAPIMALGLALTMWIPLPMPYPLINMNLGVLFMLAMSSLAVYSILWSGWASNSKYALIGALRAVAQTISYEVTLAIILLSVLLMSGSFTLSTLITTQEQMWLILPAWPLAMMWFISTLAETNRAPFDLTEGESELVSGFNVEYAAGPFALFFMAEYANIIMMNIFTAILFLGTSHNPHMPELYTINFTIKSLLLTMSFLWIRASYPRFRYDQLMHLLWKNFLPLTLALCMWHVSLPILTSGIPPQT

SMILES	IC50 [nM]
CCCCCCCCCCCC[C@@H](O)[C@H]1CC[C@H]([C@H](O)CCCCCCCCCCCCC2=C[C@H](CF)OC2=O)O1	2.9
CCCCCCCCCCCC[C@@H](O)[C@H]1CC[C@H]([C@H](O)CCCCCCCCCCCCC2=C[C@H](C(F)F)OC2=O)O1	31
CCCCCCCCCCCC[C@@H](O)[C@H]1CC[C@H]([C@H](O)CCCCCCCCCCCCC2=C[C@H](C(F)(F)F)OC2=O)O1	310
CCCCCCCCCCCC[C@@H](O)[C@H]1CC[C@H]([C@H](O)CCCCCCCCCCCCC2=C[C@@H](C)OC2=O)O1	270
CCCCCCCCCCCC[C@@H](O)[C@H]1CC[C@H]([C@H](O)CCCCCCCCCCCCC2=C[C@@H](C(F)(F)F)OC2=O)O1	570
CCCCCCCCCCCC[C@@H](O)[C@H]1CC[C@H]([C@H](O)CCCCCCCCCCCCC2=C[C@H](C)OC2=O)O1 [REL-SOLAMIN]	2.1
